Reference: PubChem BioAssay (NCI)
Several values for one entry are separate records, joined by “and”; a condition that tells them apart may be missing. Identical values can stand only once.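 Briefly, cells in 96-well plates were exposed to five compound concentrations for 48 h, and endpoints were estimated by linear interpolation. At the GI50, growth is halved. TGI marks complete inhibition of growth.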

Experiments:
Assay in all cases: growth of human tumour cells (NCI), 48 h
KM12 colon = system: KM12 colon
786-0 renal = system: 786-0 renal
SF-295 CNS = system: SF-295 CNS
IGROV1 ovarian = system: IGROV1 ovarian
OVCAR-3 ovarian = system: OVCAR-3 ovarian
OVCAR-5 ovarian = system: OVCAR-5 ovarian
NCI-H522 lung = system: NCI-H522 lung
SR leukemia = system: SR leukemia
HS 578T breast = system: HS 578T breast
MDA-MB-435 = system: MDA-MB-435

| SMILES | TGI (KM12 colon) | TGI (786-0 renal) | TGI (SF-295 CNS) [µM] | GI50 (IGROV1 ovarian) | TGI (IGROV1 ovarian) | TGI (OVCAR-3 ovarian) | TGI (OVCAR-5 ovarian) | TGI (NCI-H522 lung) | TGI (SR leukemia) [µM] | TGI (HS 578T breast) [µM] | TGI (MDA-MB-435) [µM] | GI50 (KM12 colon) [µM] | GI50 (786-0 renal) [µM] | GI50 (SF-295 CNS) [µM] | GI50 (OVCAR-3 ovarian) [µM] | GI50 (OVCAR-5 ovarian) [µM] | GI50 (MDA-MB-435) [µM] | GI50 (NCI-H522 lung) [µM] |
| --- | --- | --- | --- | --- | --- | --- | --- | --- | --- | --- | --- | --- | --- | --- | --- | --- | --- | --- |
| CC1(O)CC2C(CC1SCc1ccccc1)C2(C)C (stereo not given) | 50.8 µM and 34.6 µM | 42.7 µM and 29.3 µM | 43.4 | 38.8 µM and 15.4 µM | > 100 µM and 28.9 µM | 33.6 µM and 25.2 µM | 40.4 µM and 31.8 µM | 29.1 µM and 25.2 µM |  |  |  |  |  |  |  |  |  |  |
| Cc1cc(N(CCC#N)CCC#N)ccc1/C=C1N=C(/C=C\c2ccccc2)N(c2ccc(C(=O)O)cc2)C\1=O | > 100 µM | > 100 µM | > 100 |  | > 100 µM | > 100 µM | > 100 µM | > 100 µM | > 100 |  |  |  |  |  |  |  |  |  |
| C=C(/C=C/C=C(\CO)CCC=C(C)C)[C@H]1CCC2([C@H](CCCO)/C(=C(/C)C=O)CC[C@]2(C)O)[C@H]1O (stereo not given in full) | > 100 µM | > 100 µM | > 100 |  | > 100 µM | > 100 µM | > 100 µM |  |  |  |  |  |  |  |  |  |  |  |
| CC1(C)N=C(N)N=C(N)N1c1ccc(CCCCCCc2ccc(S(=O)(=O)F)cc2)cc1 |  | 16.5 µM | 22 |  | 30.8 µM | 32.4 µM | 15 µM | 20.2 µM |  | 30.5 | 21.2 |  |  |  |  |  |  |  |
| O=C(Nc1c(Cl)cc([N+](=O)[O-])cc1Cl)C(=O)C(C(=O)c1ccncc1)C1OC(=O)c2ccccc21 (stereo not given) | > 100 µM | > 100 µM | > 100 |  | > 100 µM | > 100 µM | > 100 µM | > 100 µM | > 100 |  |  |  |  |  |  |  |  |  |
| O=C1Cc2c([nH]c3ccccc23)-c2cc(Br)ccc2N1 | > 100 µM | > 100 µM | > 100 |  | > 100 µM | > 100 µM | > 100 µM | > 100 µM |  |  |  |  |  |  |  |  |  |  |
| COc1cc([C@H]2c3cc4c(cc3[C@H](NCc3ccc(F)cc3)C3COC(=O)[C@H]32)OCO4)cc(OC)c1O (stereo not given in full) | 15.1 µM | 5.48 µM | 17.9 |  | 34 µM | 29.3 µM | 30.9 µM | 9.48 µM |  |  |  |  |  |  |  |  |  |  |
| CC1(C)O[C@@H](CCl)C[C@@H](C#N)O1 | > 100 µM | > 100 µM | > 100 |  | > 100 µM | > 100 µM | > 100 µM | > 100 µM | > 100 |  |  |  |  |  |  |  |  |  |
| COc1ccc(C2NC(c3ccc(OC)cc3)C(C)C(=O)C2C)cc1 (stereo not given) | > 100 µM | > 100 µM | > 100 |  | > 100 µM | > 100 µM | 97.2 µM | > 100 µM |  |  |  |  |  |  |  |  |  |  |
| COc1ccc(S(=O)(=O)NNS(C)(=O)=O)cc1OC | > 100 µM | > 100 µM | > 100 |  | > 100 µM |  |  | > 100 µM | > 100 |  |  |  |  |  |  |  |  |  |
| NC(=O)C1C(=O)Oc2cccnc21 (stereo not given) | > 100 µM | > 100 µM | > 100 |  | > 100 µM | > 100 µM |  | > 100 µM |  |  |  |  |  |  |  |  |  |  |
| CCOC(=O)c1cnc2c(ccc3ncccc32)c1OCC | > 100 µM | > 100 µM |  |  | > 100 µM | > 100 µM | > 100 µM | > 100 µM | > 100 |  |  |  |  |  |  |  |  |  |
| C=C(c1ccc(C(=O)NCCCn2ccnc2)cc1)c1cc2c(cc1C)C(C)(C)CCC2(C)C | > 50.6 µM | 5.45 µM | 18.7 | 1.92 µM | > 32 µM | 6.09 µM | 12.7 µM | 3.72 µM |  |  | 16 | 0.37 | 1.94 | 1.31 | 1.69 | 0.953 | 0.0734 | 0.123 |
| O=C(/C=N/O)Nc1cccc(Cl)c1I | > 100 µM | > 100 µM | > 100 |  | > 100 µM | > 100 µM | > 100 µM | > 100 µM | > 100 |  |  |  |  |  |  |  |  |  |
| COc1ccc(/C(C#N)=C2/O/C(=N/N)C(c3ccc(OC)c(OC)c3)C2=O)cc1OC (stereo not given) | > 100 µM | > 100 µM | > 100 |  | > 100 µM | > 100 µM |  | > 100 µM | > 100 |  |  |  |  |  |  |  |  |  |
| CNC(=O)N(CCCCC(NC(C)=O)C(=O)NCc1ccccc1)Cc1ccccc1 (stereo not given) | > 100 µM | > 100 µM | > 100 |  | > 100 µM | > 100 µM | > 100 µM | > 100 µM |  |  |  |  |  |  |  |  |  |  |
| COc1cc(COC(=O)N(C)[C@@H](Cc2ccccc2)C(=O)O)c([N+](=O)[O-])cc1OC | > 100 µM | > 100 µM | > 100 |  | > 100 µM | > 100 µM | > 100 µM |  |  | > 100 | > 100 |  |  |  |  |  |  |  |
| Cc1c(C(=O)/C=C/c2ccc3c(c2)OCO3)[n+](=O)c2ccccc2n1[O-] | 90.5 µM | > 100 µM | 95.7 |  | > 100 µM | 83.3 µM | 74.3 µM | 36.9 µM | > 100 |  |  |  |  |  |  |  |  |  |
